Test results as given in US20230270893A1, “GALLIUM-LABELED GASTRIN ANALOGUE AND USE IN A METHOD OF IMAGING CCKB-RECEPTOR-POSITIVE TUMORS OR CANCERS” (DEBIOPHARM INTERNATIONAL S.A., priority 2020, published 2023).
Like-named read-outs stand apart in the source and are kept apart here.

Columns and labels:
CCK2R [1] = tested on: T1, CCK2R; test: Peptide blocking experiment (co-injection of blocking dose of PPF11N) in the ex vivo biodistribution study; set-up: species or system CD1 mice; conditions: CD1, stomach, iv, total radioactivity, 60 min post-injection, co-injected PPF11N 40 μg per mouse (1.3 mg/kg), read-out: Concentration in the stomach with peptide blocking dose
T1 construct: from tissue; host or cells: organs of naive CD1 mice (stomach and others), in vivo injection with ex vivo gamma counting
Protocol: (§1) Ex vivo biodistribution study. Female (FIG. 1A) and male (FIG. 1B) naïve adult CD1 mice (immunocompetent) were injected with [^68Ga]Ga-PPF11N ((0.19±0.04) MBq, 0.04 μg, 1.3 μg/kg). Mice were sacrificed at 5, 15, 30, 60, 120 and 240 min post-injection (N=4 each). A control group of mice of each sex was co-injected with a blocking dose of PPF11N peptide (40 μg, 1.3 mg/kg) and sacrificed at 60 min post-injection. Organs (blood, bone, brain, colon, gonad, kidney, liver, lung, muscle, pancreas, stomach) were weighted and assessed for activity concentration over time. Ex vivo biodistribution in all resected tissues was computed as the percentage of injected dose per gram of tissue (% ID/g).
(§2) Immunocompetent CD1 mice (N=28 males and N=28 females on study, N=3 males and N=3 females spare; males 9 weeks old, females 5 weeks old at delivery) were acclimatized for 7 days, inspected daily and weighed on the day of injection. For each sex, mice were randomly allocated to 7 groups (N=4 mice per group) and each group was injected (bolus i.v. route into a laterial tail vein) with [^68Ga]Ga-PPF11N peptide ((0.19±0.04) MBq in 0.15 mL; (0.039±0.02) μg peptide in non-blocked groups. Following radiolabeling, each product batch was assessed by iTLC and HPLC to ensure the material met the target criteria. For the blocked group, 38±1 μg of peptide was injected. At 5 min, 15 min, 30 min, 1 h, 2 h and 4 h post-injection mice (n=4 per time point for each sex) were sacrificed by cervical dislocation and tissues (blood, bone, brain, colon, gonad, kidney, liver, lung, muscle, pancreas, stomach) were resected, weighed and the radioactivity was counted with a gamma-counter along with calibration standards (dilution series in triplicate). The study design is depicted in the table below.
(§3) The activity of each collected tissue was measured in units of counts per min (CPM). […] Measured values were decay corrected and adjusted to account for background radiation

CCK2R [2] = biological target: T2, CCK2R (Mus musculus, UniProt P56481); test: as above; set-up: species or system CD1 mice; conditions: male and female mice, 60 min post-injection, PPF11N 40 μg per mouse
T2 construct: from tissue; host or cells: organs of naive CD1 mice (stomach and others), in vivo injection with ex vivo gamma counting
T2 sequence (P56481 1-453): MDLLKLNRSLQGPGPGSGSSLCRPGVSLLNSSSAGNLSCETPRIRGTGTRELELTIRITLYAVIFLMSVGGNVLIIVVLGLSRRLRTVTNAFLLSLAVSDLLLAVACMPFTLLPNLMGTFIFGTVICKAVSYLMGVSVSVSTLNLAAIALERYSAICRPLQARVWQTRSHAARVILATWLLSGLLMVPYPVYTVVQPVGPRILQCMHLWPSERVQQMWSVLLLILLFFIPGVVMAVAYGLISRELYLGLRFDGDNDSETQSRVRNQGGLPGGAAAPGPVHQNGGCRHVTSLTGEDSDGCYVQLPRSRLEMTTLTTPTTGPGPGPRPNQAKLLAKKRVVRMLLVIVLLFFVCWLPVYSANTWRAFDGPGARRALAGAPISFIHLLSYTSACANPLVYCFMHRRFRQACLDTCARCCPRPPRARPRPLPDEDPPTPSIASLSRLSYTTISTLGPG
Protocol: as §1, §2, §3

[3] = Ex vivo biodistribution study in naïve adult CD1 mice; conditions: for tissue uptake at 1 h: CD1, mouse, iv, 0.04 ug, total radioactivity; for tissue uptake at 1 h / Retention in stomach: 60 min post-injection
Protocol: as §1, §2
The activity of each collected tissue was measured in units of counts per min (CPM). Triplicate aliquots of serial dilutions of the radiotracer were also assayed in the gamma counter in order to calculate a conversion factor to units of activity (% ID/g). Measured values were decay corrected and adjusted to account for background radiation

SMILES: CCCC[C@H](NC(=O)[C@H](Cc1c[nH]c2ccccc12)NC(=O)CNC(=O)[C@H](Cc1ccc(O)cc1)NC(=O)[C@H](C)NC(=O)[C@@H](CCC(=O)O)NC(=O)[C@@H](CCC(=O)O)NC(=O)[C@@H](CCC(=O)O)NC(=O)[C@@H](CCC(=O)O)NC(=O)[C@@H](CCC(=O)O)NC(=O)[C@@H](CCC(=O)O)NC(=O)CN1CCN(CC(=O)O)CCN(CC(=O)O)CCN(CC(=O)O)CC1)C(=O)N[C@@H](CC(=O)O)C(=O)N[C@@H](Cc1ccccc1)C(N)=O [^68Ga-PPF11N, ^68Ga-Y-DGlu-DGlu-DGlu-DGlu-DGlu-DGlu-Ala-Tyr-Gly-Trp-Nle-Asp-Phe-NH2, metal not drawn]
- tissue uptake at 1 h (CCK2R [1]; female mice): 0.19 ± 0.02 %ID/g
- tissue uptake at 1 h (CCK2R [1]; male mice): 0.32 ± 0.07 %ID/g
- Effect of peptide blocking dose on kidney exposure (CCK2R [2]): unable to reduce kidney exposure
- tissue uptake at 1 h ([3]; blood, female mice, i.v., 0.04 μg peptide, read-out: Blood concentration): 0.4 ± 0.12 %ID/g
- tissue uptake at 1 h ([3]; blood, male mice, i.v., 0.04 μg peptide, read-out: Blood concentration): 0.46 ± 0.35 %ID/g
- tissue uptake at 1 h ([3]; kidney, female mice, read-out: Retention in kidneys): 2.98 ± 0.53 %ID/g
- tissue uptake at 1 h ([3]; kidney, male mice, read-out: Retention in kidneys): 3.38 ± 0.67 %ID/g
- tissue uptake at 1 h ([3]; muscle, female mice, read-out: Activity concentration in muscle): 0.16 ± 0.09 %ID/g
- tissue uptake at 1 h ([3]; muscle, male mice, read-out: Activity concentration in muscle): 0.1 ± 0.03 %ID/g
- tissue uptake at 1 h ([3]; stomach, female mice, read-out: Retention in stomach): 1.71 ± 0.56 %ID/g
- tissue uptake at 1 h ([3]; stomach, male mice, read-out: Retention in stomach): 1.93 ± 0.18 %ID/g
- Retention in stomach ([3]; female mice): 1.71±0.56 % ID/g
- Clearance from organs ([3]; male and female mice, 5 to 240 min post-injection): rapid clearance from all organs except for kidneys and stomach
- Retention in stomach ([3]; male mice): 1.93±0.18 % ID/g
